According to patent US9809861B2, “Method of evaluating inhibitory effect on damp-dry malodor” (Kao Corporation, priority 2012, dated 2017):

Assays:
[1] = test system: Δ9desaturase gene; assay: Change in expression amount of Δ9desaturase gene in the presence of test substance (real time PCR); format: cell-based, Moraxella sp. KMC4-1; settings: for Change in the expression amount of Δ9desaturase gene: Substance (1) 10 ppm, (2)(3)(5)(6) 100 ppm, (4) 500 ppm
Protocol: The substances (1) to (7) described below each were added to 4 mL SCD liquid medium (manufactured by NIHON PHARMACEUTICAL CO., LTD). As a control, a medium system not added with any test substance was also prepared. To these medium, one platinum loop of precultured Moraxella sp. KMC4-1 was inoculated and cultured for 24 hours at 35 C while shaking (160 rpm).
To the cell liquid cultured for 24 hours, 10 mg of 16-methyloctadecanoic acid was added as a sebaceous dirt component. After culturing again for 6 hours at 35° C., the cells were collected. As a control, a system not added with a sebaceous dirt component was also cultured and cells were collected therefrom.
An RNA sample was prepared from the collected cells in the same manner as in the test example 1.
By mixing 2 μL solution of the prepared template diluted ×20 with distilled sterile water, 12.5 μL of TaKaRa SYBR Premix EX Taq (trade name, manufactured by Takara Bio Inc.), 0.5 μL of the primer (des_F1, […]) containing the oligonucleotide having the base sequence set forth in SEQ ID NO: 13, 0.5 μL of the primer (des_R1, […]) containing the oligonucleotide having the base sequence set forth in SEQ ID NO: 14 and 9.5 μL of distilled sterile water, 25 μL reaction solution for real time PCR was prepared.
Reaction solutions for real time PCR were prepared in the same manner as above, except that, instead of the primer set including the primer containing the oligonucleotide having the base sequence set forth in SEQ ID NO: 13 and the primer containing the oligonucleotide having the base sequence set forth in SEQ ID NO: 14, the primer set described in Tables 11 to 13 was used.
The reaction solutions for real time PCR each were subjected to a gene amplification by using an automatic gene amplification thermal cycler DICE Real time system II (manufactured by Takara Bio Inc.), and then the expression amount of each of the fatty acid desaturase gene (the Δ9desaturase gene) and the β oxidation-relating enzyme genes (the fadB gene and the fadD gene) was measured. PCR reaction conditions were 40 cycles of (i) a thermal denaturation reaction at 95° C. for 20 seconds, and (ii) an annealing reaction and an elongation reaction at 60° C. for 30 seconds.
By having the gene expression of 16S rRNA as an internal standard, and having the gene expression amount when adding no sebaceous dirt component and no test substance as a reference value, change in expression amount of each gene was calculated relative to the reference value. A sample, in which the expression amount of the gene was ½ times or less the reference value, was rated as “A”; a sample, in which the expression amount of the gene was more than ½ times and ⅔ times or less the reference value, was rated as “B”; and a sample, in which the expression amount of the gene was more than ⅔ times the reference value, was rated as “C”.

[2] = test system: Moraxella sp. KMC4-1; assay: Quantification of 4M3H produced in model examination cloth (LC-FL); format: cell-based; settings: for Ratio of suppressing 4M3H production: cotton cloth with 0.5 mg 14-methylhexadecanoic acid, 24 hours, 37° C., relative to no test substance, Substance (1) 10 ppm, (2)(3)(5)(6) 100 ppm, (4) 500 ppm; for 4M3H production inhibition ratio: summary of Table 14
Protocol: (§1) Subsequently, by using Moraxella sp. KMC4-1, which is one kind of the microorganisms which produce damp-dry malodor-causing substances, sensory evaluation of the inhibitory effect on damp-dry malodor by the test substance and measurement of production amount of 4M3H as one kind of the damp-dry malodor-causing substances were carried out.
(§2) Moraxella sp. KMC4-1 was inoculated as a test microbe onto SCD-LP agar medium (manufactured by Wako Pure Chemical Industries, Ltd.) and cultured for 1 to 2 weeks at room temperature to give a pre-culture plate. Colony surface was scraped off from the pre-culture plate, suspended in 5 mL of physiological saline, and OD600 was adjusted to 1.0 (about 10^8 CFU/mL).
(§3) A cotton jersey cloth obtained in a constant state after sterilization and drying at 25° C., 40% RH (cotton jersey manufactured by Shikisensha Colo., LTD., without silket finish) was cut to a square of 2 cm×2 cm. To the cloth, a solution prepared by dissolving 0.5 mg of 14-methylhexadecanoic acid, as a sebaceous dirt component, in 0.1 mL methanol, was applied. Then, methanol was dried to solid, to give a model examination cloth.
[…] It was then dried for 2 hours at room temperature to dry methanol. Thereafter, 0.1 mL of the microbe suspension was coated onto the model examination cloth, and cultured for 24 hours in a petri dish using an incubator at 37° C. with relative humidity of 70%, to obtain a microbe-fixed cloth.
Further, the model examination cloth was analyzed by using LC-FL (liquid chromatography apparatus: HITACHI ELITE LaChrom (trade name, manufactured by Hitachi, Ltd.), column: Lichrosphere 100 RP-8(e) (trade name, manufactured by Agilent Technologies, Inc., 5 μm×125 mm×4 mmφ), column temperature: 40° C., eluent: a mixed solution of acetonitrile/water=7/3 (volume ratio), flow rate: 1.0 mL/min, detector: excitation wavelength (365 nm), measurement wavelength (412 nm)), and thereby quantification of 4M3H thus produced in the model examination cloth was carried out. Ratio of the produced 4M3H amount relative to the 4M3H production amount when no test substance was added was calculated, and then ratio of suppressing 4M3H production was calculated.

[3] = test system: Moraxella sp. KMC4-1; assay: Sensory evaluation of inhibitory effect on damp-dry malodor on model examination cloth; format: cell-based; settings: summary of Table 14
Protocol: as §1, §2, §3
Methanol solution was prepared for each test substance and applied at 20° C. on the model examination cloth such that applied amount of each test substance was […] per gram of the model examination cloth. It was then dried for 2 hours at room temperature to dry methanol. Thereafter, 0.1 mL of the microbe suspension was coated onto the model examination cloth, and cultured for 24 hours in a petri dish using an incubator at 37° C. with relative humidity of 70%, to obtain a microbe-fixed cloth.
The sensory test of the model examination cloth was evaluated by a professional panel who can distinguish different subjects based on the damp-dry malodor. A sample, in which an inhibitory effect on damp-dry malodor was confirmed, was rated as “A”; a sample, in which it was difficult to determine the inhibitory effect on damp-dry malodor or a Weak inhibitory effect on damp-dry malodor was confirmed, was rated as “B; and a sample, in which no inhibitory effect on damp-dry malodor was confirmed, was rated as “C”.

[4] = primers SEQ ID NO: 13 / 14, 16-methyloctadecanoic acid added, relative to reference without sebaceous dirt component and test substance

SMILES	Change in the expression amount of Δ9desaturase gene [1, 4]	Change in the expression amount of Δ9desaturase gene ([1]; primers SEQ ID NO: 15 / 16)	Change in the expression amount of Δ9desaturase gene ([1]; primers SEQ ID NO: 17 / 18)	Change in the expression amount of Δ9desaturase gene ([1]; primers SEQ ID NO: 19 / 20)	Change in the expression amount of Δ9desaturase gene ([1]; primers SEQ ID NO: 21 / 22)	Change in the expression amount of Δ9desaturase gene ([1]; primers SEQ ID NO: 23 / 24)	expression amount of the Δ9desaturase gene by the microorganisms ([1]; summary of Table 11)	Ratio of suppressing 4M3H production [2] [%]	4M3H production inhibition ratio [2]	inhibitory effect on damp-dry malodor [3]
CCCCCCCCCC=O [Substance (1)]	B (the expression amount of the gene was more than ½ times and ⅔ times or less the reference value)	B (the expression amount of the gene was more than ½ times and ⅔ times or less the reference value)	A (the expression amount of the gene was ½ times or less the reference value)	A (the expression amount of the gene was ½ times or less the reference value)	B (the expression amount of the gene was more than ½ times and ⅔ times or less the reference value)	B (the expression amount of the gene was more than ½ times and ⅔ times or less the reference value)	decreased	100	high	an inhibitory effect on damp-dry malodor was observed
CC(=O)OC(C)(C)Cc1ccccc1 [Substance (2)]	C (the expression amount of the gene was more than ⅔ times the reference value)	B (the expression amount of the gene was more than ½ times and ⅔ times or less the reference value)	B (the expression amount of the gene was more than ½ times and ⅔ times or less the reference value)	B (the expression amount of the gene was more than ½ times and ⅔ times or less the reference value)	C (the expression amount of the gene was more than ⅔ times the reference value)	C (the expression amount of the gene was more than ⅔ times the reference value)	–	100	high	an inhibitory effect on damp-dry malodor was observed
O=C[C@H](O)[C@@H](O)[C@H](O)[C@H](O)CO [Substance (5)]	C (the expression amount of the gene was more than ⅔ times the reference value)	C (the expression amount of the gene was more than ⅔ times the reference value)	C (the expression amount of the gene was more than ⅔ times the reference value)	C (the expression amount of the gene was more than ⅔ times the reference value)	C (the expression amount of the gene was more than ⅔ times the reference value)	C (the expression amount of the gene was more than ⅔ times the reference value)	–	0	–	–
CNc1ccccc1C(=O)OC [Substance (3)]	C (the expression amount of the gene was more than ⅔ times the reference value)	C (the expression amount of the gene was more than ⅔ times the reference value)	C (the expression amount of the gene was more than ⅔ times the reference value)	C (the expression amount of the gene was more than ⅔ times the reference value)	C (the expression amount of the gene was more than ⅔ times the reference value)	C (the expression amount of the gene was more than ⅔ times the reference value)	–	91	high	an inhibitory effect on damp-dry malodor was observed
CCCCCCCC/C=C\CCCCCCCC(=O)O [Substance (4)]	C (the expression amount of the gene was more than ⅔ times the reference value)	C (the expression amount of the gene was more than ⅔ times the reference value)	C (the expression amount of the gene was more than ⅔ times the reference value)	C (the expression amount of the gene was more than ⅔ times the reference value)	C (the expression amount of the gene was more than ⅔ times the reference value)	C (the expression amount of the gene was more than ⅔ times the reference value)	–	81	high	an inhibitory effect on damp-dry malodor was observed
